# Test results published in patent US20050234046A1 (Kalypsys, Inc., priority 2004, published 2005).
# Tests used:
# Experiment in all cases: Transient transfection (transactivation) assay in CV-1 cells, GAL4-PPAR chimera, luciferase reporter
# Format in all cases: cell-based
# [1] = molecular target: T1, PPAR delta (Homo sapiens, UniProt Q03181)
# T1 construct: expressed in transfected cells; host or cells: CV-1 cells
# T1 sequence (Q03181 211-439 limits assumed): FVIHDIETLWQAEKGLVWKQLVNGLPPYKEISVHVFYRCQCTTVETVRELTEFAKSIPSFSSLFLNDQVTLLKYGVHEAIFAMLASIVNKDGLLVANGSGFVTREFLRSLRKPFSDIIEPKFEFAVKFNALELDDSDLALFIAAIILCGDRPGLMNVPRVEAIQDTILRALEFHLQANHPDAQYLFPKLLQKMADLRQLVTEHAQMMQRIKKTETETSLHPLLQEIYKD
# [2] = molecular target: T2, PPAR gamma (Homo sapiens, UniProt P37231)
# T2 construct: expressed in transfected cells; host or cells: CV-1 cells
# T2 sequence (P37231 238-503 limits assumed): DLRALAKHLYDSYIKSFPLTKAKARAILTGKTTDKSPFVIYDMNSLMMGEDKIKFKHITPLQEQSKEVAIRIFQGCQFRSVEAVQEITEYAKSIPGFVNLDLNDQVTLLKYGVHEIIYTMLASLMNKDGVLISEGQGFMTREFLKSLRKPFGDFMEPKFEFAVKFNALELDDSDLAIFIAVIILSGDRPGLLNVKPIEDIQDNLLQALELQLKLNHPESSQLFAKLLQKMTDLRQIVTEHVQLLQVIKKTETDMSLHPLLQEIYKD
# [3] = molecular target: T3, PPAR alpha (Homo sapiens, UniProt Q07869)
# T3 construct: expressed in transfected cells; host or cells: CV-1 cells
# T3 sequence (Q07869 239-466 limits assumed): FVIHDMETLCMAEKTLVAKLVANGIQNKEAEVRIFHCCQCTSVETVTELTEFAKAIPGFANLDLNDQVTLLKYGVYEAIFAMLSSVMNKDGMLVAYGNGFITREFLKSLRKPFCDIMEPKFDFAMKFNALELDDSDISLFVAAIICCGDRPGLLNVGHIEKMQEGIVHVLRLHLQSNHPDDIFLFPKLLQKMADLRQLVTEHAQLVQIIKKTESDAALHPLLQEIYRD
# Summary of the method: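 GAL4 DNA-binding domain fused to PPAR ligand binding domain, co-transfected into CV-1 cells with a luciferase reporter carrying four or five GAL4 sites. Replated cells in phenol-red free DME with 5% delipidated calf serum were treated with compound or 1% DMSO for 20-24 hours; luciferase read for EC50 and efficacy.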
EC50 [1],EC50 [2],EC50 [3],SMILES
> 100 µM,5 to 100 µM,> 100 µM,"O=C(O)Cc1cccc(S(=O)(=O)N2CCN(C(c3ccccc3)c3ccc(Cl)cc3)CC2)c1 (stereo not drawn) [Example 134, (3-{4-[(4-Chloro-phenyl)-phenyl-methyl]-piperazine-1-sulfonyl}-phenyl)-acetic, acid]"
5 to 100 µM,> 100 µM,> 100 µM,"O=C(O)Cc1cccc(S(=O)(=O)N2CCN(c3ccc([N+](=O)[O-])cc3)CC2)c1 [Example 135, {3-[4-(4-Nitro-phenyl)-piperazine-1-sulfonyl]-phenyl}-acetic acid]"
> 100 µM,> 100 µM,> 100 µM,"O=C(O)Cc1cccc(S(=O)(=O)N2CCN(C(=O)c3ccco3)CC2)c1 [Example 136, {3-[4-(Furan-2-carbonyl)-piperazine-1-sulfonyl]-phenyl}-acetic acid]"
> 100 µM,> 100 µM,> 100 µM,"COc1cccc(N2CCN(S(=O)(=O)c3cccc(CC(=O)O)c3)CC2)c1 [Example 137, {3-[4-(3-Methoxy-phenyl)-piperazine-1-sulfonyl]-phenyl}-acetic acid]"
> 100 µM,5 to 100 µM,> 100 µM,"O=C(O)Cc1cccc(S(=O)(=O)N2CCN(C(c3ccc(F)cc3)c3ccc(F)cc3)CC2)c1 [Example 138, (3-{4-[Bis-(4-fluoro-phenyl)-methyl]-piperazine-1-sulfonyl}-phenyl)-acetic acid]"
> 100 µM,> 100 µM,> 100 µM,"O=C(O)Cc1cccc(S(=O)(=O)N2CCN(c3ccccc3Cl)CC2)c1 [Example 140, {3-[4-(2-Chloro-phenyl)-piperazine-1-sulfonyl]-phenyl}-acetic acid]"
5 to 100 µM,> 100 µM,> 100 µM,"O=C(O)Cc1cccc(S(=O)(=O)N2CCN(c3ccccc3F)CC2)c1 [Example 141, {3-[4-(2-Fluoro-phenyl)-piperazine-1-sulfonyl]-phenyl}-acetic acid]"
> 100 µM,> 100 µM,> 100 µM,"CCOc1ccccc1N1CCN(S(=O)(=O)c2cccc(CC(=O)O)c2)CC1 [Example 142, {3-[4-(2-Ethoxy-phenyl)-piperazine-1-sulfonyl]-phenyl}-acetic acid]"
5 to 100 µM,> 100 µM,5 to 100 µM,"O=C(O)Cc1cccc(S(=O)(=O)N2CCN(C/C=C/c3ccccc3)CC2)c1 [Example 143, {3-[4-(3-Phenyl-allyl)-piperazine-1-sulfonyl]-phenyl}-acetic acid]"
5 to 100 µM,5 to 100 µM,> 100 µM,"O=C(O)Cc1cccc(S(=O)(=O)N2CCN(c3ccc(F)cc3)CC2)c1 [Example 144, {3-[4-(4-Fluoro-phenyl)-piperazine-1-sulfonyl]-phenyl}-acetic acid]"
5 to 100 µM,> 100 µM,> 100 µM,"O=C(O)Cc1cccc(S(=O)(=O)N2CCN(c3ccccc3)CC2)c1 [Example 145, [3-(4-Phenyl-piperazine-1-sulfonyl)-phenyl]-acetic acid]"
> 100 µM,5 to 100 µM,> 100 µM,"O=C(O)Cc1cccc(S(=O)(=O)N2CCN(C(c3ccccc3)c3ccccc3)CC2)c1 [Example 146, [3-(4-Benzhydryl-piperazine-1-sulfonyl)-phenyl]-acetic acid]"
< 5 µM,5 to 100 µM,> 100 µM,"Cc1ccc(CC(=O)O)cc1S(=O)(=O)N1CCN(c2ccc(Cl)cc2)CC1 [Example 147, {3-[4-(4-Chloro-phenyl)-piperazine-1-sulfonyl]-4-methyl-phenyl}-acetic acid]"
> 100 µM,> 100 µM,> 100 µM,"Cc1ccc(N2CCN(S(=O)(=O)c3cc(CC(=O)O)ccc3C)CC2)c(C)c1 [Example 148, {3-[4-(2,4-Dimethyl-phenyl)-piperazine-1-sulfonyl]-4-methyl-phenyl}-acetic acid]"
> 100 µM,5 to 100 µM,> 100 µM,"Cc1cccc(N2CCN(S(=O)(=O)c3cc(CC(=O)O)ccc3C)CC2C)c1 (stereo not drawn) [Example 149, [4-Methyl-3-(3-methyl-4-m-tolyl-piperazine-1-sulfonyl)-phenyl]-acetic acid]"
5 to 100 µM,5 to 100 µM,> 100 µM,"Cc1ccc(N2CCN(S(=O)(=O)c3cc(CC(=O)O)ccc3C)CC2)cc1C [Example 150, {3-[4-(3,4-Dimethyl-phenyl)-piperazine-1-sulfonyl]-4-methyl-phenyl}-acetic acid]"
> 100 µM,5 to 100 µM,> 100 µM,"Cc1ccc(Cl)cc1N1CCN(S(=O)(=O)c2cc(CC(=O)O)ccc2C)CC1 [Example 151, {3-[4-(5-Chloro-2-methyl-phenyl)-piperazine-1-sulfonyl]-4-methyl-phenyl}-acetic acid]"
> 100 µM,5 to 100 µM,> 100 µM,"Cc1ccc(CC(=O)O)cc1S(=O)(=O)N1CCN(CCc2ccccc2)CC1 [Example 152, [4-Methyl-3-(4-phenethyl-piperazine-1-sulfonyl)-phenyl]-acetic acid]"
> 100 µM,> 100 µM,> 100 µM,"Cc1ccc(CC(=O)O)cc1S(=O)(=O)N1CCN(c2ccc(C#N)cc2)CC1 [Example 153, {3-[4-(4-Cyano-phenyl)-piperazine-1-sulfonyl]-4-methyl-phenyl}-acetic acid]"
> 100 µM,5 to 100 µM,> 100 µM,"Cc1ccc(CC(=O)O)cc1S(=O)(=O)N1CCN(Cc2ccc(F)cc2)CC1 [Example 154, {3-[4-(4-Fluoro-benzyl)-piperazine-1-sulfonyl]-4-methyl-phenyl}-acetic acid]"
> 100 µM,> 100 µM,> 100 µM,"COc1ccc(N2CCN(S(=O)(=O)c3cc(CC(=O)O)ccc3C)CC2)cc1 [Example 155, {3-[4-(4-Methoxy-phenyl)-piperazine-1-sulfonyl]-4-methyl-phenyl}-acetic acid]"
5 to 100 µM,5 to 100 µM,> 100 µM,"Cc1ccc(CC(=O)O)cc1S(=O)(=O)N1CCN(c2ccc(C(C)(C)C)cc2)CC1 [Example 156, {3-[4-(4-tert-Butyl-phenyl)-piperazine-1-sulfonyl]-4-methyl-phenyl}-acetic acid]"
> 100 µM,> 100 µM,> 100 µM,"COc1ccc(N2CCN(S(=O)(=O)c3cc(CC(=O)O)ccc3C)CC2)cc1OC [Example 157, {3-[4-(3,4-Dimethoxy-phenyl)-piperazine-1-sulfonyl]-4-methyl-phenyl}-acetic acid]"
5 to 100 µM,> 100 µM,> 100 µM,"Cc1ccc(CC(=O)O)cc1S(=O)(=O)N1CCN(c2ccc(C(F)(F)F)cc2[N+](=O)[O-])CC1 [Example 158, {4-Methyl-3-[4-(2-nitro-4-trifluoromethyl-phenyl)-piperazine-1-sulfonyl]-phenyl}-acetic acid]"
> 100 µM,> 100 µM,> 100 µM,"COc1ccccc1N1CCN(S(=O)(=O)c2cc(CC(=O)O)ccc2C)CC1 [Example 159, {3-[4-(2-Methoxy-phenyl)-piperazine-1-sulfonyl]-4-methyl-phenyl}-acetic acid]"
> 100 µM,5 to 100 µM,> 100 µM,"Cc1ccc(C)c(N2CCN(S(=O)(=O)c3cc(CC(=O)O)ccc3C)CC2)c1 [Example 160, {3-[4-(2,5-Dimethyl-phenyl)-piperazine-1-sulfonyl]-4-methyl-phenyl}-acetic acid]"
> 100 µM,5 to 100 µM,> 100 µM,"Cc1ccc(CC(=O)O)cc1S(=O)(=O)N1CCN(CC2CCCCC2)CC1 [Example 161, [3-(4-Cyclohexylmethyl-piperazine-1-sulfonyl)-4-methyl-phenyl]-acetic acid]"
> 100 µM,> 100 µM,> 100 µM,"Cc1ccc(CC(=O)O)cc1S(=O)(=O)N1CCN(c2ccccc2C#N)CC1 [Example 162, {3-[4-(2-Cyano-phenyl)-piperazine-1-sulfonyl]-4-methyl-phenyl}-acetic acid]"
> 100 µM,> 100 µM,> 100 µM,"Cc1ccc(CC(=O)O)cc1S(=O)(=O)N1CCN(c2cnccn2)CC1 [Example 163, [4-Methyl-3-(2,3,5,6-tetrahydro-[1,2]bipyrazinyl-4-sulfonyl)-phenyl]-acetic acid]"
5 to 100 µM,5 to 100 µM,> 100 µM,Cc1ccc(CC(=O)O)cc1S(=O)(=O)N1CCN(C(c2ccccc2)c2ccc(Cl)cc2)CC1 (stereo not drawn) [Example 164]

SMILES,EC50 [1],EC50 [2],EC50 [3]
"O=C(O)Cc1cccc(S(=O)(=O)N2CCN(c3cccc(Cl)c3)CC2)c1 [Example 139, {3-[4-(3-Chloro-phenyl)-piperazine-1-sulfonyl]-phenyl}-acetic acid]",5 to 100 µM,5 to 100 µM,> 100 µM
